The term MIC denotes the lowest concentration found to suppress growth. A high value points to a need for much substance.

The subject of one series is Choriocarcinoma (JAR). In words: MIC on cell proliferation, 7 days in culture. The series is classed as cell-based, human. How it is done: (§1) The ability of arginine butyrate to induce differentiation has been evaluated and is measured by inhibition of growth, in some of the neoplastic cell types previously reported to be sensitive to (sodium) butyric acid, and found arginine butyrate to be as potent as butyric acid. We have also extended that work to additional cell types and found Arginine Butyrate to induce differentiation in these new cell types. Table 1 lists the cell types tested and the minimum inhibitory concentration (MIC) of sodium butyrate (NaB) and arginine butyrate (ArgB) on these cell lines. The MIC is the lowest dose that prevents all growth over the 7 days that the cells are maintained in culture, that is the minimum dose that prevents an increase in cell number. […] The […] of ArgB and NaB were equivalent on all cell lines tested.

For series [1], the system named is Colonic Adenocarcinoma (HT29). As to the kind of experiment: MIC on cell proliferation, 7 days in culture. The series is classed as cell-based, human. Here is the method: as §1
The subject of a further series is Erythroleukemia (K562). In words: MIC on cell proliferation, 7 days in culture. It counts as cell-based, human. Here is the method: as §1
Series [2] deals with Gastric Carcinoma (AGS). As to the kind of experiment: MIC on cell proliferation, 7 days in culture. It counts as cell-based, human. How it is done:
as §1

In a further series the test system is Glioblastoma Multiforme. As to the kind of experiment: MIC on cell proliferation, 7 days in culture. The series is classed as cell-based, human. Here is the method:
as §1

The subject of the next series is Myeloid Leukemia (HL60). As to the kind of experiment: MIC on cell proliferation, 7 days in culture. It counts as cell-based, human. Here is the method: as §1
A further series concerns Osteosarcoma (HOS). In words: MIC on cell proliferation, 7 days in culture. It counts as cell-based, human. Here is the method:
as §1

A further series deals with Rhabdomyosarcoma. As to the kind of experiment: MIC on cell proliferation, 7 days in culture. It counts as cell-based, human. Here is the method: as §1
Series [3] has as its system Human Neuroblastoma Cell Line, SK-N-MC. In words: Proliferation of neuroblastoma cells, 4 weeks continuous exposure. It counts as cell-based. As to conditions: no treatment 1 × 10^8. How it is done: Human neuroblastoma cell line SK-N-MC was studied under different conditions. In this case, the cells were grown for 4 weeks with continuous exposure to sodium butyrate or arginine butyrate, and the cell number was quantitated at the end of this time.

Series [4] concerns A549 (non-small cell cancer). As to the kind of experiment: Survival fraction after 72 hours exposure (MTT assay). It counts as cell-based, human. Here is the method: (§2) Growth inhibition was measured by the MTT assay. […] PC-3=prostate cancer; A549=non-small cell cancer; OvCar=ovarian cancer; CaCo=colon cancer; MCF-7=breast cancer; and SW900=non-small cell lung cancer.
On the technique in general: Formazan colour is commonly taken as a measure of viable cells.

The next series concerns CaCo (colon cancer). The description is as above. It counts as cell-based, human. How it is done:
as §2

The next series relates to fetal globin mRNA. In words: Fetal globin mRNA response in patients. It counts as in vivo, human. As to conditions: β-hemoglobinopathies; IV 500 to 2,000 mg/kg/day, 2-7 weeks. How it is done: Eleven pediatric and twelve adult patients with β-hemoglobinopathies have been treated with IV arginine butyrate at a starting dose of 500 mg/kg/day for 2-7 weeks. Dose escalation at the rate of 250 mg/kg/day to a maximum of 2,000 mg/kg/day was permitted.

The test system of series [5] is Gastric Carcinoma (AGS). In words: Differentiation of tumor cell line. It counts as cell-based, human. Here is the method: The effects of arginine butyrate compounds on differentiation of several human tumor cell lines were evaluated by visual inspection and by histochemical and pathological staining:
Although HLA antigens are expressed on normal, fully differentiated cells, they are not expressed or are minimally expressed on most neoplastic cells. In this way neoplastic cells escape recognition by the cellular arm of the immune system and are able to survive.

Series [6] deals with 3 other neuroblastoma cell lines. As to the kind of experiment: Growth inhibition over 6 days (RFU). As to conditions: 0.5 and 1.0 mM, FIG. 1a. The series is classed as cell-based, human.
Another series concerns SKNSH cells. As to the kind of experiment: Induction of apoptosis. It counts as cell-based, human. As to conditions: FIG. 1b.
The test system of the next series is K562. In words: DNA fragmentation by flow cytometry. It counts as cell-based, human. As to conditions: alone, FIG. 3. An excerpt: It has been shown that sodium butyrate can induce apoptosis in human tumors or tumor cell lines (L. A. Noorduyn et al., Histopathology 21:59, 1992).
The test system of series [7] is EBV+ and EBV− cell lines (X50-7, Akata, HPB-ALL, Nalm-6). In words: Growth of EBV+ and EBV− cell lines. It counts as cell-based, human. From the text: In some experiments sodium was used instead of arginine to neutralize butyric acid. […] Cell lines used were X50-7, a latent EBV+ B-cell lymphoma; Akata, a producer EBV+ Burkitt's lymphoma; HPB-ALL, a T-cell line; and Nalm-6, an EBV− B-cell line. Growth curves for X50-7 cells in different concentrations of sodium butyrate are shown in FIG. 8b and the growth curves for HPB-ALL cells in different concentrations of sodium butyrate are shown in FIG. 8c.

The conditions of series [8]: European pharmacokinetic studies; 500 mls of a 5% solution; two normal volunteers; cited from earlier work.
The mark [9] stands for this setting: Table 4, 0.5 AB (0.5 mM), 72 hour.

Marks after values point to notes of the source that are not given here.

On to arginine butyrate, for which the MIC against Choriocarcinoma (JAR) was 156 µM; in series [1], 2,000 μM; in the series on Erythroleukemia (K562), 1,250 μM; against Gastric Carcinoma (AGS) [2] it was 2,000 μM; in the series on Glioblastoma Multiforme it was 1,000 μM; with Myeloid Leukemia (HL60), 78 µM. In addition, the MIC in the series on Osteosarcoma (HOS) was found to be 312 µM; with Rhabdomyosarcoma it was 156 µM. In addition, the figures for the “Cell Number” value in series [3] (0.05 mM) and in [3] (1.0 mM) were 1 × 10^5 and <1 × 10 ^3, respectively. For the same substance, the “Survival Fraction” value is 0.92 in [4] (Table 3, 0.5 AB (0.5 mM), 72 hours); 0.76* in [4] (setting [9]); 0.71* in series [4] (Table 4, .05 AB, 72 hour); 0.60* with CaCo (colon cancer) (Table 3, 1.0 AB (1.0 mM), 72 hours); 0.67* in the series with CaCo (colon cancer) (setting [9]); 0.81* in the series on CaCo (colon cancer) (Table 4, .05 AB, 72 hour). For the same substance, the “response as judged by increase in fetal globin mRNA” value with fetal globin mRNA is reported as “most patients showed response”. Further, the differentiation marker expression result in the series on Gastric Carcinoma (AGS) [5] is “began to express mucin”. The growth inhibition result in series [6] is “dose response growth inhibition”. Moreover, the apoptosis result in the series with SKNSH cells is reported as “induces apoptosis”. For the same substance, the “DNA fragmentation and cellular shrinkage” value with K562 is “DNA fragmentation and cellular shrinkage”. The “effect on cell growth” value is “cytostatic to some cell lines and permitted normal cell growth in others” in [7] (1 mM); “cytocidal to most EBV+ and EBV− cell lines” in series [7] (2 mM and 3 mM). Besides, the elimination period in series [8] was 15 min.
